Where a name gives a salt, the structure may show the parent alone. Read-outs that look alike come from different tables or passages of the source.
Experiments:
[1] = target: p38α produced and activated in human cells (Homo sapiens, UniProt Q16539); test: Kinase inhibitor IC50 determination with p38α produced in human cells; format: biochemical; details: read-out: IC50, Human Cell
[2] = target: p38α expressed in E. coli, Vendor B, in vitro activated by MKK6 (Homo sapiens, UniProt Q16539); test: Kinase inhibitor IC50 determination with E. coli p38α (Vendor B, E coli-II); format: biochemical
[3] = target: p38α expressed in E. coli, Vendor A, in vitro activated by MKK6 (Homo sapiens, UniProt Q16539); test: Kinase inhibitor IC50 determination with E. coli p38α (Vendor A, E coli-I); format: biochemical
[4] = tested on: whole CD4+ cells from a healthy donor; test: Th17 polarizing cytokines: IL-17 secretion from human CD4+ cells (ELISA); format: cell-based; details: for induction of IL-17 secretion: compared with cytokines from insect cell or bacterial expression system, 5 days; for Th17 cell polarization: separate study, same condition
Description: IL-17-producing CD4+ T cells (Th-17 cells) have been identified as a unique subset of Th cells that develop along a pathway that is distinct from the Th1, and Th2-cell differentiation pathways. This finding has provided exciting new insights into immunoregulation, host defense and the pathogenesis of autoimmune diseases. Recently it has been shown that IL1β, IL6 and IL23 are important in driving human Th17 differentiation. However, TGF-β1, which is important for the differentiation of murine Th17 cells, is reported to be not required, and even inhibits human Th17 differentiation (McGeachy & Cua (2008) Immunity 28:445, Chen & O'Shea (2008) Cytokines 41:71). In this study, whole […] cells isolated from a healthy donor were stimulated with 10 μg/mL plate bound anti-CD3 and 10 μg/ml soluble anti-CD28 in the presence of Th17 polarizing cytokines from the inventive human cell expression system and from an insect cell or bacterial expression system. After 5 days supernatants were harvested for measurement of IL-17 by ELISA.

human TF-1 cells = test: IL-4 bioactivity: dose-dependent stimulation of proliferation of TF-1 cells; format: cell-based; details: TF-1 cell proliferation
[5] = Km.ATP of p38α preparations; format: biochemical
naïve T cell (Th0) = test: Differentiation of naive T cell (Th0) to Th17 cells, flow cytometry; format: cell-based; details: compared with human platelet derived native TGF-β1 (positive control)
Description: (§1) FIG. 22: Efficient differentiation of Th17 cells with authentic cytokines expressed in human cells. Whole CD4+ T cells isolated from a healthy donor were stimulated with 2 μg/mL plate bound anti-CD3 and 1 μg/mL soluble anti-CD28 in the presence of Th17 polarizing cytokines, including a titration of IL-23. After 5 days, supernatants were harvested for measurement of IL-17 by ELISA. See (A)-(G). FIG. 22 (H) depicts flow cytometry analysis on Human Th17 Differentiation by Authentic human TGF-β1. See Example 17 below.

[6] = tested on: human umbilical vein endothelial cells; test: VEGF165 bioactivity: proliferation of human umbilical vein endothelial cells; format: cell-based; details: HUVEC proliferation
[7] = tested on: human embryonic stem (hES) cells; test: Oct3/4 expression in Noggin-treated human embryonic stem cells (Western blot); format: cell-based; details: 10 pg/ml and 20 pg/ml treatment
human CD4+ T cells = test: IL-23 activity: IL-17 secretion from human CD4+ T cells (ELISA); format: cell-based; details: human CD4+ cells, 5 days
Description: (A) IL-23 activities determined by the dose-dependent secretion of IL-17 from mouse splenocytes activated with 10 ng/ml PMA. (B) IL-23 activities determined by the dose-dependent secretion of IL-17 from human CD4+ T cells stimulated with […] plate bound anti-CD3 and […] soluble anti-CD28 in the presence of Th17 polarizing cytokines.
as §1
IL-17-producing CD4+ T cells (Th17 cells) have been identified as a unique subset of T helper cells that develop along a pathway that is distinct from the Th1 and Th2-cell differentiation pathways. This finding has provided exciting new insights into immunoregulation, host defense and the pathogenesis of autoimmune diseases. Recently it has been shown that TGF-β1, […], IL-6 and IL-23 are important in driving human Th17 differentiation (Chen & O'Shea (2008) Cytokines 41:71). […] The activities were further assayed with human CD4+ cells which were isolated from a healthy donor and stimulated with 10 μg/ml plate bound anti-CD3 and 10 μg/ml soluble anti-CD28 in the presence of Th17 polarizing cytokines. After 5 days supernatants were harvested for measurement of IL-17 by ELISA.

[8] = p38α from E. coli, Vendor B, read-out: IC50, E coli-II
[9] = p38α from E. coli, Vendor A, read-out: IC50, E coli-I

Chain of p38α expressed in E. coli, Vendor B, in vitro activated by MKK6 (Q16539 whole entry): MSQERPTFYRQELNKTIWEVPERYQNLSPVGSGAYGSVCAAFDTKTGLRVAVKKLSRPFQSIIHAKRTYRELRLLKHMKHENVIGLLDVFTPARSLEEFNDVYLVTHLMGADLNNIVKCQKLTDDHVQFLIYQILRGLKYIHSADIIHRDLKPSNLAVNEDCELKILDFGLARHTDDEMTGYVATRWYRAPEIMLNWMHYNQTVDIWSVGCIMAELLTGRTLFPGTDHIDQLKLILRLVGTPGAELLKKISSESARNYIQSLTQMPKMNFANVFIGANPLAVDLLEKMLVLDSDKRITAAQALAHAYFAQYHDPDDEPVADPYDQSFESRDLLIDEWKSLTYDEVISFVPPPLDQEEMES
Chain of p38α produced and activated in human cells (Q16539 whole entry): as above
Chain of p38α expressed in E. coli, Vendor A, in vitro activated by MKK6 (Q16539 whole entry): as above

In the case of `Nc1ncnc2c1c(I)cn2[C@@H]1O[C@H](CO)[C@@H](O)[C@H]1O` [5-iodotubercidin], the IC50 [1] is reported as > 10 µM, the IC50 ([2]; read-out: IC50, E coli-II) is reported as > 10 µM and the IC50 ([3]; read-out: IC50, E coli-I) is reported as > 10 µM.

In the case of `Nc1ncnc2c1ncn2[C@@H]1O[C@H](COP(=O)(O)OP(=O)(O)NP(=O)(O)O)[C@@H](O)[C@H]1O` [AMP-PNP], the IC50 ([1]; p38α produced in human cells) is reported as 257 µM, the IC50 [2, 8] is reported as > 2000 µM and the “fold less sensitive than human cell p38α” value ([3]; Vendor A preparation vs p38α from human cells) is reported as 7 fold. It also gave an IC50 [3, 9] of 1810 µM.

For `CN(C)CCCn1cc(C2=C(c3c[nH]c4ccccc34)C(=O)NC2=O)c2ccccc21` [GF 109203X], the IC50 [1] was > 10 µM, the IC50 [2, 8] was > 10 µM and the IC50 [3, 9] was > 10 µM.

For `O=S(=O)(NCCNC/C=C/c1ccc(Br)cc1)c1cccc2cnccc12` [H89 Dihydrochloride], the IC50 ([1]; p38α produced in human cells) was > 10 µM, the IC50 [2, 8] was > 10 µM and the IC50 [3, 9] was > 10 µM.

For `NCCNS(=O)(=O)c1cccc2cnccc12` [H-9 dihydrochloride], the IC50 ([1]; p38α produced in human cells) was > 10 µM, the IC50 [2, 8] was > 10 µM and the IC50 [3, 9] was > 10 µM.

With `COC(=O)[C@@]1(O)C[C@H]2O[C@]1(C)n1c3ccccc3c3c4c(c5c6ccccc6n2c5c31)C(=O)NC4` [K252a] the IC50 [1] was 0.005 µM, the IC50 [2] was > 10 µM and the IC50 [3] was > 10 µM.

For `CCCCCCOC(=O)[C@]1(O)C[C@@H]2O[C@@]1(C)n1c3ccccc3c3c4c(c5c6ccccc6n2c5c31)C(=O)NC4` [KT5720], the IC50 ([1]; p38α produced in human cells) was 5 µM, the IC50 [2, 8] was > 10 µM and the IC50 [3, 9] was > 10 µM.

With `Cn1cc(C2=C(c3cn(CCCSC(=N)N)c4ccccc34)C(=O)NC2=O)c2ccccc21` [Ro 31-8220] the IC50 ([1]; p38α produced in human cells) was 9.9 µM, the IC50 [2, 8] was > 10 µM and the IC50 [3, 9] was > 10 µM.

With `CN(C)C[C@H]1CCn2c(c(C3=C(c4cn(C)c5ccccc45)C(=O)NC3=O)c3ccccc32)C1` [Ro 32-0432] the IC50 ([1]; p38α produced in human cells) was > 10 µM, the IC50 [2, 8] was > 10 µM and the IC50 [3, 9] was > 10 µM.

With `CC(=O)c1c(O)c(C)c(O)c(Cc2c(O)c3c(c(C(=O)/C=C/c4ccccc4)c2O)OC(C)(C)C=C3)c1O` [Rottlerin] the IC50 [1] was >200 µM, the IC50 [2] was > 200 µM and the IC50 [3] was > 200 µM.

With “IL1β: recombinantly-produced, authentic human IL1β from the human cell expression system” the “induction of IL-17 secretion” value [4] was “significantly more effective”.

With “IL4: IL4 from human cells, glycosylated major band of 19 kD; SEQ ID NO: 22” the “fold higher potency than the E. coli expressed cytokine” value (human TF-1 cells) was 4 fold.

With “IL6: recombinantly-produced, authentic human IL6; SEQ ID NO: 16” the “induction of IL-17 secretion” value [4] was “significantly more effective”.

For “TGF-β1 from insect cells: TGF-β1 cytokine from insect cells used as comparator”, the “induction of IL-17 secretion” value [4] was “marginal effect”.

“Vendor B enzyme: p38α from Vendor B, expressed and purified from E. coli, in vitro activated by MKK6” gave a Km [5] of 120 µM.

Molecule “Vendor preparation: p38α from Vendor A, expressed and purified from E. coli, in vitro activated by MKK6” has a Km [5] of 212 ± 26 µM.

For “authentic human TGF-β1: TGF-β1 from engineered human 293 cells, disulfide-linked dimer of 25 kD”, the “differentiation of Th0 to Th17 cells (IL-17 and INF-γ producing cells)” value (naïve T cell (Th0)) was “matched human platelet derived native TGF-β1”, the “induction of IL-17 secretion” value [4] was “effective in enhancing the effect” and the Th17 cell polarization [4] was “can effectively induce Th17 cell polarization”.

For “authentic p38α: recombinantly-produced, authentic human p38a produced and activated in human cells in the presence of arsenite”, the Km [5] was 109 ± 12 µM.

B1: authentic human VEGF165: VEGF165 from engineered human 293 cells, glycosylated homodimer of 45 kD; SEQ ID NO: 2 (protein)
chain: APMAEGGGQNHHEVVKFMDVYQRSYCHPIETLVDIFQEYPDEIEYIFKPSCVPLMRCGGCCNDEGLECVPTEESNITMQIMRIKPHQGQHIGEMSFLQHNKCECRPKKDRARQENPCGPCSERRKHLFVQDPQTCKCSCKNTDSRCKARQLELNERTCRCDKPRR
modifications: glycosylated homodimer
In the case of B1, the “fold more active than the E. coli expressed protein” value [6] is reported as 10 fold and the “fold more active than the E. coli expressed protein” value ([6]; listed as VEGF165) is reported as 6 fold.

B2: TGF-β2: TGF-β2 from engineered human 293 cells, disulfide-linked dimer of 25 kD (protein, UniProt P61812 303-414, looked up)
Transforming growth factor …: ALDAAYCFRNVQDNCCLRPLYIDFKRDLGWKWIHEPKGYNANFCAGACPYLWSSDTQHSRVLSLYNTINPEASASPCCVSQDLEPLTILYYIGKTPKIEQLSNMIVKSCKCS
For B2, the Th17 cell polarization [4] was “can effectively induce Th17 cell polarization”.

B3: authentic human Noggin: Noggin from human 293 cell expression system, glycosylated, disulfide-linked dimer; SEQ ID NO: 24 (protein)
chain: QHYLHIRPAPSDNLPLVDLIEHPDPIFDPKEKDLNETLLRSLLGGHYDPGFMATSPPEDRPGGGGGAAGGAEDLAELDQLLRQRPSGAMPSEIKGLEFSEGLAQGKKQRLSKKLRRKLQMWLWSQTFCPVLYAWNDLGSRFWPRYVKVGSCFSKRSCSVPEGMVCKPSKSVHLTVLRWRCQRRGGQRCGWIPIQYPIISECKCSC
modifications: glycosylated disulfide-linked homodimer
In the case of B3, the “Oct3/4 expression (marker for undifferentiated hES cells)” value [7] is reported as “consistently expressed Oct3/4” and the “Oct3/4 expression (marker for undifferentiated hES cells)” value ([7]; listed as authentic human homodimer Noggin) is reported as “expresses so effectively and consistently Oct3/4”.

B4: insect cell-produced IL-23: commercially available recombinant IL-23 from an insect cell expression system (protein, UniProt Q9NPF7 20-189; P29460 23-328, looked up)
Interleukin-23 subunit alpha: RAVPGGSSPAWTQCQQLSQKLCTLAWSAHPLVGHMDLREEGDEETTNDVPHIQCGDGCDPQGLRDNSQFCLQRIHQGLIFYEKLLGSDIFTGEPSLLPDSPVGQLHASLLGLSQLLQPEGHHWETQQIPSLSPSQPWQRLLLRFKILRSLQAFVAVAARVFAHGAATLSP
Interleukin-12 subunit beta: IWELKKDVYVVELDWYPDAPGEMVVLTCDTPEEDGITWTLDQSSEVLGSGKTLTIQVKEFGDAGQYTCHKGGEVLSHSLLLLHKKEDGIWSTDILKDQKEPKNKTFLRCEAKNYSGRFTCWWLTTISTDLTFSVKSSRGSSDPQGVTCGAATLSAERVRGDNKEYEYSVECQEDSACPAAEESLPIEVMVDAVHKLKYENYTSSFFIRDIIKPDPPKNLQLKPLKNSRQVEVSWEYPDTWSTPHSYFSLTFCVQVQGKSKREKKDRVFTDKTSATVICRKNASISVRAQDRYYSSSWSEWASVPCS
In the case of B4, the “concentration at which maximum induction of IL-17 secretion was achieved” value (human CD4+ T cells) is reported as 10 ng/mL.

B5: TGF-β3: TGF-β3 from engineered human 293 cells, disulfide-linked dimer of 25 kD (protein, UniProt P10600 301-412, looked up)
Transforming growth factor …: ALDTNYCFRNLEENCCVRPLYIDFRQDLGWKWVHEPKGYYANFCSGPCPYLRSADTTHSTVLGLYNTLNPEASASPCCVPQDLEPLTILYYVGRTPKVEQLSNMVVKSCKCS
For B5, the Th17 cell polarization [4] was “can effectively induce Th17 cell polarization”.

— patent publication US8236527B2, “Recombinant production of authentic human proteins using human cell expression systems” (Humanzyme Limited, priority 2008, dated 2012)
